Patent US7078552B2, “Combretastatin A-1 phosphate and combretastatin B-1 phosphate prodrugs” (Arizona Board of Regents, priority 2000, dated 2006)
≈ marks a conversion by molar mass, not a printed value. Where two headings read alike, the source gives them in different places.

Tests used:
[1] = tested on: OVCAR-3; experiment: Human cancer cell line growth inhibition, Ovarian OVCAR-3; assay type: cell-based; settings: for GI50: Homo sapiens
[2] = tested on: KM20L2; experiment: Human cancer cell line growth inhibition, Colon KM20L2; assay type: cell-based; settings: for GI50: Homo sapiens, KM-20L2
[3] = tested on: SF-295; experiment: Human cancer cell line growth inhibition, CNS SF-295; assay type: cell-based; settings: for GI50: Homo sapiens
[4] = tested on: DU-I45; experiment: Human cancer cell line growth inhibition, Prostate DU-I45; assay type: cell-based; settings: for GI50: Homo sapiens
[5] = tested on: BXPC-3; experiment: Human cancer cell line growth inhibition, Pancreas-a BXPC-3; assay type: cell-based; settings: for GI50: Homo sapiens
[6] = tested on: NCl-H460; experiment: Human cancer cell line growth inhibition, Lung-NSC NCl-H460; assay type: cell-based; settings: for GI50: Homo sapiens
[7] = tested on: P388 lymphocytic leukemia cell line; experiment: Murine P388 lymphocytic leukemia in vitro cell growth inhibition; assay type: cell-based
[8] = tested on: tubulin (microtubule assembly); settings: literature (Pettit et al, 1987, 1989); read-out: IC50 inhibiting microtubule assembly in vitro; cited from earlier work
[9] = tested on: P388 lymphocytic leukemia cell line; settings: literature (Pettit et al, 1987, 1989); cited from earlier work
[10] = 1 mL distilled water at 25° C., Table I
[11] = tested on: P388 leukemia; settings: early murine P388 leukemia in vivo experiments, compared with combretastatin A-4; cited from earlier work
[12] = tested on: tubulin; settings: at equal concentrations; cited from earlier work
[13] = tested on: P388 and human tumor cell lines; experiment: Cytotoxicity versus the P388 and human tumor cell lines, comparative statements
[14] = physchem; settings: water

Row | Compound | Ovarian OVCAR-3 GI50 [1] | Colon KM20L2 GI50 [2] | CNS SF-295 GI50 [3] | Prostate DU-I45 GI50 [4] | Pancreas-a BXPC-3 GI50 [5] | Lung-NSC NCl-H460 GI50 [6] | Leukemia P388 ED50 ([7]; P388 cell line) | also measured
1 | Magnesium Combretastatin A-1 2′,3′-O-diphosphate [Compound 11d] | 0.031 µg/mL | 0.47 µg/mL | 0.039 µg/mL | 0.032 µg/mL | 0.44 µg/mL | 0.039 µg/mL | 0.0245 µg/mL | –
2 | Morpholine Combretastatin A-1 2′,3′-O-diphosphate [Compound 11h] | 0.043 µg/mL | 0.26 µg/mL | 0.042 µg/mL | 0.039 µg/mL | 0.35 µg/mL | 0.046 µg/mL | 0.002 µg/mL | –
3 | Nicotinamide Combretastatin A-1 2′,3′-O-diphosphate [Compound 11j] | 0.054 µg/mL | 0.53 µg/mL | 0.053 µg/mL | 0.046 µg/mL | 0.42 µg/mL | 0.15 µg/mL | 0.005 µg/mL | –
4 | Calcium Combretastatin A-1 2′,3′-O-diphosphate [Compound 11e] | 0.024 µg/mL | 0.34 µg/mL | 0.041 µg/mL | 0.024 µg/mL | 0.28 µg/mL | 0.037 µg/mL | 0.0102 µg/mL | –
5 | COc1ccc(CCc2cc(OC)c(OC)c(OC)c2)c(O)c1O [Compound 2, combretastatin B-1] | – | – | – | – | – | – | – | IC50 [8]: 3000 nM; ED50 against murine P388 lymphocytic leukemia in vitro system [9]: 1.7 µg/mL (≈ 5080 nM); Leukemia P388 ED50 [7]: 1.7 µg/mL
6 | COc1cc(/C=C\c2ccc(OC)c(OP(=O)([O-])[O-])c2OP(=O)([O-])[O-])cc(OC)c1OC.[K+].[K+].[K+].[K+] [Compound 11b, Potassium Combretastatin A-1 2′,3′-O-diphosphate] | 0.023 µg/mL | 0.30 µg/mL | 0.035 µg/mL | 0.024 µg/mL | 0.38 µg/mL | 0.036 µg/mL | 0.0170 µg/mL | solubility ([10]; first part): >90 mg/mL; solubility ([10]; second part (column repeated)): >90 mg/mL
7 | COc1ccc(/C=C\c2cc(OC)c(OC)c(OC)c2)cc1O [Compound 3a, combretastatin A-4, reference compound] | – | – | – | – | – | – | 0.0003 µg/mL | IC50 [8]: […]; GI50 [1]: < 0.001 µg/mL; GI50 [2]: 0.061 µg/mL (≈ 193 nM); GI50 [3]: < 0.001 µg/mL; GI50 [4]: 0.0008 µg/mL (≈ 2.53 nM); GI50 [5]: 0.39 µg/mL (≈ 1230 nM); ED50 against murine P388 lymphocytic leukemia in vitro system [9]: ~0.0009 µg/mL (≈ 2.84 nM); GI50 [6]: 0.0006 µg/mL (≈ 1.9 nM)
8 | COc1ccc(/C=C\c2cc(OC)c(OC)c(OC)c2)c(O)c1O [Compound 1, Combretastatin A-1] | – | – | – | 0.17 µg/mL | 4.4 µg/mL | 0.74 µg/mL | 0.251 µg/mL | IC50 [8]: 2000 nM; antineoplastic results in vivo [11]: more consistent antineoplastic results; inhibition of colchicine binding to tubulin [12]: ~99%; ED50 against murine P388 lymphocytic leukemia in vitro system [9]: 0.99 µg/mL (≈ 2980 nM)
9 | COc1cc(CCc2ccc(OC)c(OP(=O)(O)O)c2OP(=O)(O)O)cc(OC)c1OC [Compound 5, Sodium Combretastatin B-1 2′,3′-O-Diphosphate] | – | – | – | – | – | – | 0.335 µg/mL | GI50 [1]: 2 µg/mL; cytotoxicity / antineoplastic activity compared to prodrug 4 [13]: reduced antineoplastic activity; GI50 [2]: > 10 µg/mL; GI50 [3]: 2.3 µg/mL; GI50 [4]: 2.7 µg/mL; GI50 [5]: > 10 µg/mL; solubility ([14]; 25 °C): > 50 mg/mL; GI50 [6]: 3.3 µg/mL
10 | Papaverine Combretastatin A-1 2′,3′-O-diphosphate [Compound 11n] | 0.052 µg/mL | 0.33 µg/mL | 0.063 µg/mL | 0.054 µg/mL | 0.38 µg/mL | 0.27 µg/mL | 0.05 µg/mL | –
11 | COc1cc(/C=C\c2ccc(OC)c(OP(=O)([O-])[O-])c2OP(=O)([O-])[O-])cc(OC)c1OC.[Zn+2].[Zn+2] [Compound 11g, Dizinc Combretastatin A-1 2′,3′-O-diphosphate] | 0.027 µg/mL | 0.32 µg/mL | 0.033 µg/mL | 0.025 µg/mL | 0.36 µg/mL | 0.032 µg/mL | 0.0394 µg/mL | –
12 | COc1cc(/C=C\c2ccc(OC)c(OP(=O)([O-])[O-])c2OP(=O)([O-])[O-])cc(OC)c1OC.[Mn+2].[Mn+2] [Compound 11f, Manganese Combretastatin A-1 2′, 3′-O-diphosphate] | 0.044 µg/mL | 6.1 µg/mL | 0.28 µg/mL | 2.4 µg/mL | 4.7 µg/mL | 0.19 µg/mL | 0.715 µg/mL | –
13 | COc1cc(/C=C\c2ccc(OC)c(OP(=O)(O)O)c2OP(=O)(O)O)cc(OC)c1OC [Compound 4, Sodium Combretastatin A-1 2′,3′-O-diphosphate] | – | – | – | – | – | – | <0.0100 µg/mL | GI50 [1]: 0.024 µg/mL; GI50 [2]: 0.53 µg/mL; GI50 [3]: 0.036 µg/mL; GI50 [4]: 0.034 µg/mL; GI50 [5]: 1.5 µg/mL; solubility ([10]; second part (column repeated)): 120 mg/mL; solubility ([14]; 25 °C): 120 mg/mL; solubility [14]: 120 mg/mL; GI50 [6]: 0.038 µg/mL
14 | COc1cc(/C=C\c2ccc(OC)c(OP(=O)([O-])[O-])c2OP(=O)([O-])[O-])cc(OC)c1OC.[Li+].[Li+].[Li+].[Li+] [Compound 11a, Lithium Combretastatin A-1 2′,3′-O-diphosphate] | 0.028 µg/mL | 0.37 µg/mL | 0.042 µg/mL | 0.031 µg/mL | 0.33 µg/mL | 0.040 µg/mL | <0.0100 µg/mL | –
15 | Piperazine Combretastatin in A-1 2′,3′-O-diphosphate [Compound 11i] | 0.046 µg/mL | 0.20 µg/mL | 0.039 µg/mL | 0.036 µg/mL | 0.35 µg/mL | 0.037 µg/mL | 0.002 µg/mL | –
16 | Quinidine Combretastatin A-1 2′,3′-O-diphosphate [Compound 11l] | 0.043 µg/mL | 0.84 µg/mL | 0.056 µg/mL | 0.10 µg/mL | 0.55 µg/mL | 0.37 µg/mL | 0.004 µg/mL | –
17 | Quinine Combretastatin A-1 2′,3′-O-dephosphate [Compound 11k] | 0.054 µg/mL | 0.40 µg/mL | 0.044 µg/mL | 0.050 µg/mL | 0.47 µg/mL | 0.34 µg/mL | 0.004 µg/mL | –
18 | COc1cc(/C=C\c2ccc(OC)c(OP(=O)([O-])[O-])c2OP(=O)([O-])[O-])cc(OC)c1OC.[Cs+].[Cs+].[Cs+].[Cs+] [Compound 11c, Cesium Combretastatin A-1 2′,3′-O-diphosphate] | 0.024 µg/mL | 0.28 µg/mL | 0.038 µg/mL | 0.024 µg/mL | 0.31 µg/mL | 0.040 µg/mL | 0.0365 µg/mL | –
